Reference: ChEMBL document CHEMBL3507680, “University of Dundee, Gates Library screen for HepG2 cell viability”

Assay: Human HepG2 cell viability assay in 384 well format
Format: toxicity, cell-based
Parameters: dose 125 nL, time 70.5 hour; cytotoxicity at 70.5 h: concentration not given beside the values
Conditions: HepG2 cells, read-out: Inhibition

Compared with `O=C(NCC(F)(F)F)c1ccncc1`, `O=C(O)CCc1ccc(S(=O)(=O)Nc2cnn(CC(F)(F)F)c2)cc1` is lower in cytotoxicity at 70.5 h: 12.7% for the first, -5.48% for the second.

Compared with `O=C(COCCOc1ccccc1)NC1CCN(c2ccccn2)CC1`, `O=C(CCOc1ccccc1)NS(=O)(=O)Cc1ccccc1` is higher in cytotoxicity at 70.5 h: -12.1% for the first, -5.31% for the second.

Going from `CC(C)(C)C(=O)NCC(=O)Nc1cccnc1` to `Cc1ccc(CN(C)C(=O)NCC(=O)NC(C)(C)C)s1`, the cytotoxicity at 70.5 h rises from -6.42% to -3.18%.

Going from `Cn1nc(C(=O)NC2(c3ccc(Cl)cc3)CCCC2)ccc1=O` to `CSc1ccc(CNC2(c3ccc(F)cc3)CCOCC2)cc1`, the cytotoxicity at 70.5 h falls from 24.7% to -3.89%.

Going from `CCc1nnc2n1CCN(C(C(=O)NC1CC1)c1ccc(F)cc1)C2` (stereo unspecified) to `CCc1nnc2n1CCN(C(C(=O)N(CC)CC)c1ccccc1)C2` (stereo unspecified), the cytotoxicity at 70.5 h rises from -15.2% to -12.7%.

Going from `COc1ccc(CNC(=O)c2ccoc2CN2CCNC(=O)C2)cc1` to `CCN(CC)C(=O)CCNC(=O)c1c[nH]c2ccc(OC)cc12`, the cytotoxicity at 70.5 h falls from 22.4% to 1.48%.

First: CC1Oc2c(cccc2C(=O)N2CCN(CC(C)(C)O)CC2)NC1=O (stereo unspecified)
Second: CCC(O)CN1CCN(C(=O)c2cccc3c2OCC(=O)N3)CC1 (stereo unspecified)
The cytotoxicity at 70.5 h of the first is lower: -10.7% for the first, 27.7% for the second.

First: O=C(Cc1ccc(-n2cnnn2)cc1)Nc1cnn(CC(F)F)c1
Second: CC(=O)N1CCC(NC(=O)c2cc(Cl)ccc2-n2cnnn2)CC1
The cytotoxicity at 70.5 h of the first is lower: -15.7% for the first, -6.61% for the second.

First: CSCC(CCO)Nc1nc(C(F)F)nc2ccccc12 (stereo unspecified)
Second: CCC(CO)Nc1nc(C(F)F)nc2ccccc12 (stereo unspecified)
The cytotoxicity at 70.5 h of the first is higher: -7.1% for the first, -11.3% for the second.

Going from `CC(C)NC1CCN(CCc2ccc3c(c2)CCO3)CC1` to `CCCN1CCC(N(C)CCC(=O)Nc2ccccc2SC)CC1`, the cytotoxicity at 70.5 h falls from 9.93% to 1.62%.

Compared with `CC(=O)Nc1nc(CNc2ccccc2CCC(F)(F)F)cs1`, `CCOc1ccccc1CCC(=O)Nc1c(C)nn(C)c1C` is higher in cytotoxicity at 70.5 h: -12% for the first, 14.5% for the second.

First: CC(C)n1nnnc1-c1ccc(NC(=O)C(C)(C)C#N)cc1F
Second: CC(C)c1noc(CCC(=O)Nc2cc(F)ccc2F)n1
The cytotoxicity at 70.5 h of the first is lower: 4.99% for the first, 12.9% for the second.

Compared with `Cc1ccccc1-n1nccc1NC(=O)CCOC(C)C`, `CCOCCOC(C)C(=O)Nc1ccnn1-c1ccccc1C` (stereo unspecified) is lower in cytotoxicity at 70.5 h: 11.4% for the first, -4.2% for the second.

Going from `O=C(c1cc(C2CCCC2)no1)N1CCCCC1` to `O=C(c1ccc(CN2CCCC2)cc1)N1CCCC(n2cccn2)C1` (stereo unspecified), the cytotoxicity at 70.5 h rises from -15.8% to -5.06%.

Compared with `NC(c1ccccc1)c1ccc(OC(F)F)cc1` (stereo unspecified), `COC(C)c1cccc(NCc2cccs2)c1` (stereo unspecified) is lower in cytotoxicity at 70.5 h: 6.42% for the first, -3.58% for the second.

Going from `CC(C)c1noc(C[S+]([O-])CC(=O)Nc2cc(F)ccc2F)n1` (stereo unspecified) to `Cc1nccn1CCCC(=O)Nc1nc(C(C)C)nn1C`, the cytotoxicity at 70.5 h rises from -3.52% to 10.2%.

Going from `Cc1ccc(NC(=O)C2CCCN2C(=O)C2CC2)nc1` (stereo unspecified) to `Cc1nc(-c2ccc(CC(=O)N3CCN(C(=O)C4CC4)CC3)cc2)cs1`, the cytotoxicity at 70.5 h rises from -3.51% to -1.62%.

First: COCCNC(=O)CN1CCN(c2nc3cc(C)ccc3o2)CC1
Second: COc1ccnc(N2CCN(Cc3ncc(-c4ccccc4)o3)CC2)n1
The cytotoxicity at 70.5 h of the first is lower: -1.86% for the first, 4.14% for the second.

Going from `O=C1CC(C(=O)Nc2nnc(-c3ccoc3)[nH]2)c2ccccc2N1` (stereo unspecified) to `CCc1oc(C(=O)N[C@@H]2c3ccccc3C[C@@H]2O)cc1C`, the cytotoxicity at 70.5 h falls from 0.202% to -5.26%.

Compared with `O=C(c1cscn1)N(CCCO)S(=O)(=O)c1cccs1`, `CNS(=O)(=O)c1ccc(CNC(=O)Nc2ccccn2)s1` is higher in cytotoxicity at 70.5 h: 0.658% for the first, 3.18% for the second.

Going from `CCNC(=O)NC1CCC(Oc2ccccc2C#N)CC1` (stereo unspecified) to `CN(C)C1(C(=O)NC2CCC(Oc3ccccc3C#N)CC2)CCC1` (stereo unspecified), the cytotoxicity at 70.5 h falls from 9.88% to -4.33%.

Compared with `COc1cc(Br)cc(CNC2CCCNC2=O)c1O` (stereo unspecified), `COc1ccc(C2CCCN2C(=O)c2ccc(=O)n(C)c2)cc1OC` (stereo unspecified) is lower in cytotoxicity at 70.5 h: 2.96% for the first, -6.18% for the second.

Going from `Cc1ncc(S(=O)(=O)Nc2ccnn2C2CCCCC2)[nH]1` to `Cc1n[nH]c(C)c1CNC(=O)NC1CCCCC1`, the cytotoxicity at 70.5 h falls from -1.01% to -8.57%.

First: COCCN1CCN(CC2(O)CCCCC2)CC1
Second: Cc1csc(C2(NC(=O)NCCN3CCOCC3)CCCC2)n1
The cytotoxicity at 70.5 h of the first is higher: -0.488% for the first, -7.84% for the second.

Compared with `Cc1cc(C2CCCN(C(=O)COc3ccc(F)cc3)C2)n[nH]1` (stereo unspecified), `Cc1cc(C2CCCN(Cc3noc(Cc4ccccc4)n3)C2)n[nH]1` (stereo unspecified) is higher in cytotoxicity at 70.5 h: -8.58% for the first, -1% for the second.

First: COCCN(C)CC1CCCN1S(=O)(=O)c1cc(C)oc1C (stereo unspecified)
Second: CCN(C(=O)CS(=O)(=O)c1cc(OC)c(OC)cc1C)C1CC1
The cytotoxicity at 70.5 h of the first is higher: -4.11% for the first, -8.45% for the second.

Going from `Cc1cc(C)n(CC2CCN(CC(O)Cn3cccn3)CC2)n1` (stereo unspecified) to `CC(C(=O)N1CCN(CCOc2ccccc2)CC1)n1cncn1` (stereo unspecified), the cytotoxicity at 70.5 h rises from -1.67% to 9.32%.

Compared with `Cc1cc(C)c2cc(C(=O)N3CCNC(=O)C3)[nH]c2c1`, `CC(=O)N1CCC(NC(=O)c2cc(Cl)ccc2O)CC1` is higher in cytotoxicity at 70.5 h: -8% for the first, -4.41% for the second.

First: CCCn1nnnc1COC(=O)C1COc2ccc(Cl)cc2C1 (stereo unspecified)
Second: CCn1cnnc1CNC(=O)N(C)Cc1cccc(Cl)c1Cl
The cytotoxicity at 70.5 h of the first is higher: -5.74% for the first, -6.25% for the second.

First: CC(C(=O)Nc1nccs1)N(C)Cc1cccc(C#N)c1 (stereo unspecified)
Second: O=C(NCCCC(=O)N1Cc2ccccc2C1)NCc1nccs1
The cytotoxicity at 70.5 h of the first is lower: -11.6% for the first, -5.34% for the second.

Compared with `COC1CCN(c2ccc(F)cc2CN(C)C(=O)c2cc[nH]n2)CC1`, `CN(C)Cc1ccc(C(=O)N2CCCC(n3cccn3)C2)cc1` (stereo unspecified) is higher in cytotoxicity at 70.5 h: -13.3% for the first, 8.2% for the second.

Going from `Cc1nnc2n1CCN(C(=O)C(C)Oc1ccc(C#N)cc1)C2` (stereo unspecified) to `Cc1nc(-c2ccc(CC(=O)N3CCN(C(=O)C(C)C)CC3)cc2)cs1`, the cytotoxicity at 70.5 h rises from -12.4% to -1.97%.

Compared with `COc1cc(C)c(S(=O)(=O)CC(=O)N(C)C2CC2)cc1OC`, `COc1ccc(CN(C)Cc2c(C)noc2C)c(Br)c1OC` is lower in cytotoxicity at 70.5 h: 15.2% for the first, -8.43% for the second.

Going from `COCc1cccc(NCc2cccnc2)c1` to `O=C(NCCCC(=O)N1Cc2ccccc2C1)NCc1cccnc1`, the cytotoxicity at 70.5 h rises from -10.4% to -0.375%.

First: COc1ccc(CN(C)Cc2c(C)noc2C)c(Cl)c1OC
Second: Cc1noc(C)c1CN(C)Cc1csc(-c2ncccn2)n1
The cytotoxicity at 70.5 h of the first is lower: -8.81% for the first, -3.82% for the second.

Going from `O=C1CCCN1CCN1CCC(c2ccn[nH]2)CC1` to `O=C1CCCN1CCN1CCCC(c2ccn[nH]2)C1` (stereo unspecified), the cytotoxicity at 70.5 h rises from -7.63% to 27.7%.

First: O=C(NC1CCN(C2CC2)CC1)c1cc(Cl)ccc1-n1cnnn1
Second: O=C(NCCNS(=O)(=O)c1cccc(Cl)c1)C1CCCO1 (stereo unspecified)
The cytotoxicity at 70.5 h of the first is higher: 8.23% for the first, 6.97% for the second.

Going from `COc1cccc(CNCc2c(C)nc3sc(C)cn23)c1OC` to `CCN(CC)C(=O)Nc1ccc(N2CCSCC2)cc1C`, the cytotoxicity at 70.5 h rises from -1.69% to 8.14%.

First: Cn1ccnc1CCNS(=O)(=O)c1ccc(Br)cc1
Second: COCCS(=O)(=O)Cc1nnnn1-c1ccccc1
The cytotoxicity at 70.5 h of the first is higher: 9.92% for the first, -2.53% for the second.

Compared with `CC1CN(C(=O)C2(c3cccc(F)c3)CCOCC2)CCO1` (stereo unspecified), `O=C(NCC1CCC2(CC1)OCCO2)c1ccncc1F` is higher in cytotoxicity at 70.5 h: -3.81% for the first, -3.09% for the second.

Compared with `Cc1nc(CNC(=O)NCCC2=CCCC2)oc1C`, `CCc1n[nH]c(C2CN(CC(=O)N(C)Cc3ccco3)CCO2)n1` (stereo unspecified) is lower in cytotoxicity at 70.5 h: 7.64% for the first, -11.1% for the second.

First: CCc1nc2n(n1)CC(NCc1cn(C)nc1-c1cccnc1)CC2 (stereo unspecified)
Second: Cc1noc(CSc2ccc(C(F)(F)F)cn2)n1
The cytotoxicity at 70.5 h of the first is higher: -4.07% for the first, -6.64% for the second.

First: Cc1nnc(CSc2ccc(C(F)(F)F)cn2)o1
Second: CC(C)(C)OC(=O)N1CCC(NC2CCS(=O)(=O)C2)CC1 (stereo unspecified)
The cytotoxicity at 70.5 h of the first is higher: 2.72% for the first, -8.07% for the second.
